Assay results from patent US8012956B2, “Tropane compounds” (Exelixis, Inc., priority 2007, dated 2011).

Biological target: HSP90 (Homo sapiens, UniProt P07900)
Experiment: HSP90 inhibition (HSP90 IC50)
Type: biochemical

`COc1cccc(C(=O)N[C@H]2C[C@H]3CC[C@@H](C2)N3c2ccc(C(=O)NCc3ccc(Br)cc3)cn2)c1C` [N-[(4-bromophenyl)methyl]-6-[3-endo-({[2-methyl-3-(methyloxy)phenyl]carbonyl}amino)-8-azabicyclo[3.2.1]oct-8-yl]pyridine-3-carboxamide] and `COc1cccc(C(=O)N[C@H]2C[C@H]3CC[C@@H](C2)N3c2ccc(C(=O)NCc3ccc(Cl)cc3)cn2)c1C` [N-[(4-chlorophenyl)methyl]-6-[3-endo-({[2-methyl-3-(methyloxy)phenyl]carbonyl}amino)-8-azabicyclo[3.2.1]oct-8-yl]pyridine-3-carboxamide] fall in the same range of IC50: 500 to 999 nM for the first, 500 to 999 nM for the second.

`COc1cccc(C(=O)N[C@H]2C[C@H]3CC[C@@H](C2)N3c2ccc(C(=O)NCc3ccc(F)cc3)cn2)c1C` [N-[(4-fluorophenyl)methyl]-6-[3-endo-({[2-methyl-3-(methyloxy)phenyl]carbonyl}amino)-8-azabicyclo[3.2.1]oct-8-yl]pyridine-3-carboxamide] and `COc1cccc(C(=O)N[C@H]2C[C@H]3CC[C@@H](C2)N3c2ccc(C(=O)NCc3ccc(Cl)nc3)cn2)c1C` [N-[(6-chloropyridin-3-yl)methyl]-6-[3-endo-({[2-methyl-3-(methyloxy)phenyl]carbonyl}amino)-8-azabicycio[3.2.1]oct-8-yl]pyridine-3-carboxamide] cannot be ordered by IC50: < 500 nM for the first, < 500 nM for the second.

First: CCN(CC)CCOc1ccc(CNC(=O)c2ccc(N3[C@@H]4CC[C@H]3C[C@@H](NC(=O)c3cccc(OC)c3C)C4)nc2)cc1 [N-[(4-{[2-(diethylamino)ethyl]oxy}phenyl)methyl]-6-[3-endo-({[2-methyl-3-(methyloxy)phenyl]carbonyl}amino)-8-azabicyclo[3.2.1]oct-8-yl]pyridine-3-carboxamide]
Second: CCNC(=O)c1ccc(N2[C@@H]3CC[C@H]2C[C@@H](NC(=O)c2cccc(OC)c2C)C3)nc1 [N-ethyl-6-[3-endo-({[2-methyl-3-(methyloxy)phenyl]carbonyl}amino)-8-azabicyclo[3.2.1]oct-8-yl]pyridine-3-carboxamide]
The IC50 of the first is lower: < 500 nM for the first, 500 to 999 nM for the second.

Compared with `COc1cccc(C(=O)N[C@H]2C[C@H]3CC[C@@H](C2)N3c2ccc(C(=O)NC3CNC3)cn2)c1C` [N-azetidin-3-yl-6-[3-endo-({[2-methyl-3-(methyloxy)phenyl]carbonyl}amino)-8-azabicyclo[3.2.1]oct-8-yl]pyridine-3-carboxamide], `COc1cccc(C(=O)N[C@H]2C[C@H]3CC[C@@H](C2)N3c2ccc(C(=O)NC3CC3)cn2)c1C` [N-cyclopropyl-6-[3-endo-({[2-methyl-3-(methyloxy)phenyl]carbonyl}amino)-8-azabicyclo[3.2.1]oct-8-yl]pyridine-3-carboxamide] is higher in IC50: 500 to 999 nM for the first, 1000 to 2000 nM for the second. The first is the more potent here.

First: CCCCNC(=O)c1ccc(N2[C@@H]3CC[C@H]2C[C@@H](NC(=O)c2cccc(OC)c2C)C3)nc1 [N-butyl-6-[3-endo-({[2-methyl-3-(methyloxy)phenyl]carbonyl}amino)-8-azabicyclo[3.2.1]oct-8-yl]pyridine-3-carboxamide]
Second: COc1cccc(C(=O)N[C@H]2C[C@H]3CC[C@@H](C2)N3c2ccc(C(=O)NCCCOC(C)C)cn2)c1C [N-{3-[(1-methylethyl)oxy]propyl}-6-[3-endo-({[2-methyl-3-(methyloxy)phenyl]carbonyl}amino)-8-azabicyclo[3.2.1]oct-8-yl]pyridine-3-carboxamide]
The IC50 of the first is lower: 500 to 999 nM for the first, 1000 to 2000 nM for the second.

`COc1cccc(C(=O)N[C@H]2C[C@H]3CC[C@@H](C2)N3c2ccc(C(=O)NC3CCC3)cn2)c1C` [N-cyclobutyl-6-[3-endo-({[2-methyl-3-(methyloxy)phenyl]carbonyl}amino)-8-azabicyclo[3.2.1]oct-8-yl]pyridine-3-carboxamide] and `COc1cccc(C(=O)N[C@H]2C[C@H]3CC[C@@H](C2)N3c2ccc(C(=O)NC3CCCC3)cn2)c1C` [N-cyclopentyl-6-[3-endo-({[2-methyl-3-(methyloxy)phenyl]carbonyl}amino)-8-azabicyclo[3.2.1]oct-8-yl]pyridine-3-carboxamide] fall in the same range of IC50: 500 to 999 nM for the first, 500 to 999 nM for the second.

First: COc1cccc(C(=O)N[C@H]2C[C@H]3CC[C@@H](C2)N3c2ccc(C(=O)NC3CCCCC3)cn2)c1C [N-cyclohexyl-6-[3-endo-({[2-methyl-3-(methyloxy)phenyl]carbonyl}amino)-8-azabicyclo[3.2.1]oct-8-yl]pyridine-3-carboxamide]
Second: COc1cccc(C(=O)N[C@H]2C[C@H]3CC[C@@H](C2)N3c2ccc(C(=O)NO)cn2)c1C [N-hydroxy-6-[3-endo-({[2-methyl-3-(methyloxy)phenyl]carbonyl}amino)-8-azabicyclo[3.2.1]oct-8-yl]pyridine-3-carboxamide]
The IC50 of the first is lower: 500 to 999 nM for the first, 2000 to 10000 nM for the second. The first is the more potent here.

First: CNC(=O)c1ccc(N2[C@@H]3CC[C@H]2C[C@@H](NC(=O)c2cccc(OC)c2C)C3)nc1 [N-methyl-6-[3-endo-({[2-methyl-3-(methyloxy)phenyl]carbonyl}amino)-8-azabicyclo[3.2.1]oct-8-yl]pyridine-3-carboxamide]
Second: COc1cccc(C(=O)N[C@H]2C[C@H]3CC[C@@H](C2)N3c2ccc(C(=O)NCCOC(C)C)cn2)c1C [N-{2-[(1-methylethyl)oxy]ethyl}-6-(3-endo-({[2-methyl-3-(methyloxy)phenyl]carbonyl}amino)-8-azabicyclo[3.2.1]oct-8-yl]pyridine-3-carboxamide]
The IC50 of the first is lower: 1000 to 2000 nM for the first, 2000 to 10000 nM for the second.

First: COc1ccc(C(C)NC(=O)c2ccc(N3[C@@H]4CC[C@H]3C[C@@H](NC(=O)c3cccc(OC)c3C)C4)nc2)cc1OC (stereo partly drawn) [N-{1-[3,4-bis(methyloxy)phenyl]ethyl}-6-[3-endo-({[2-methyl-3-(methyloxy)phenyl]carbonyl}amino)-8-azabicyclo[3.2.1]oct-8-yl]pyridine-3-carboxamide]
Second: COc1ccc(CCNC(=O)c2ccc(N3[C@@H]4CC[C@H]3C[C@@H](NC(=O)c3cccc(OC)c3C)C4)nc2)cc1OC [N-{2-[3,4-bis(methyloxy)phenyl]ethyl}-6-[3-endo-({[2-methyl-3-(methyloxy)phenyl]carbonyl}amino)-8-azabicyclo[3.2.1]oct-8-yl]pyridine-3-carboxamide]
The IC50 of the first is lower: 500 to 999 nM for the first, 2000 to 10000 nM for the second. The first is the more potent here.

`Cc1cc(C(N)=O)c(CC(C)C)cc1C(=O)N[C@H]1C[C@H]2CC[C@@H](C1)N2c1ccc(C(=O)C2CC2)cn1` [N-{8-(5-(cyclopropylcarbonyl)pyridin-2-yl]-8-azabicyclo[3.2.1]oct-3-endo-yl}-2-methyl-5-(2-methylpropyl)benzene-1,4-dicarboxamide] and `COc1cc(C(=O)N[C@H]2C[C@H]3CC[C@@H](C2)N3c2ccc(C(=O)C3CC3)cn2)c(C)cc1C(N)=O` [N-{8-[5-(cyclopropylcarbonyl)pyridin-2-yl]-8-azabicyclo[3.2.1]oct-3-endo-yl}-2-methyl-5-(methyloxy)benzene-1,4-dicarboxamide] cannot be ordered by IC50: < 500 nM for the first, < 500 nM for the second.

`CCC(Nc1cc(C(=O)N[C@H]2C[C@H]3CC[C@@H](C2)N3c2ccc(C(=O)C3CC3)cn2)c(C)cc1C(N)=O)C1CC1` (stereo partly drawn) [N-{8-(5-(cyclopropylcarbonyl)pyridin-2-yl]-8-azabicyclo[3.2.1]oct-3-endo-yl}-5-[(1-cyclopropylpropyl)amino]-2-methylbenzene-1,4-dicarboxamide] and `Cc1cc(C(N)=O)c(NC(C)C2CC2)cc1C(=O)N[C@H]1C[C@H]2CC[C@@H](C1)N2c1ccc(C(=O)C2CC2)cn1` (stereo partly drawn) [N-{8-[5-(cyclopropylcarbonyl)pyridin-2-yl]-8-azabicycbo[3.2.1]oct-3-endo-yl}-5-[(l-cyclopropylethyl)amino]-2-methylbenzene-1,4-dicarboxamide] cannot be ordered by IC50: < 500 nM for the first, < 500 nM for the second.

`Cc1cc(C(=O)N[C@H]2C[C@H]3CC[C@@H](C2)N3c2ccc(C(N)=O)cn2)c(C)cc1C(N)=O` [N-{8-[5-(aminocarbonyl)pyridin-2-yl]-8-azabicyclo[3.2.1]oct-3-endo-yl}-2,5-dimethylbenzene-1,4-dicarboxamide] and `CCCNc1cc(C(=O)N[C@H]2C[C@H]3CC[C@@H](C2)N3c2ccc(C(=O)C3CC3)cn2)c(C)cc1C(N)=O` [N-{8-[5-(cyclopropylcarbonyl)pyridin-2-yl]-8-azabicyclo[3.2.1]oct-3-endo-yl}-2-methyl-5-(propylamino)benzene-1,4-dicarboxamide] cannot be ordered by IC50: < 500 nM for the first, < 500 nM for the second.

First: NC(=O)c1ccc(C(=O)N[C@H]2C[C@H]3CC[C@@H](C2)N3c2ccc(C(N)=O)cn2)cc1 [N-{8-[5-(aminocarbonyl)pyridin-2-yl]-8-azabicyclo[3.2.1]oct-3-endo-yl}benzene-1,4-dicarboxamide]
Second: Cc1cc(C(N)=O)c(NCC2CC2)cc1C(=O)N[C@H]1C[C@H]2CC[C@@H](C1)N2c1ccc(C(=O)C2CC2)cn1 [N-{8-[5-(cyclopropylcarbonyl)pyridin-2-yl]-8-azabicyclo[3.2.1]oct-3-endo-yl)-5-[(cyclopropylmethyl)amino]-2-methylbenzene-1,4-dicarboxamide]
The IC50 of the first is higher: 1000 to 2000 nM for the first, < 500 nM for the second.

Compared with `Cc1cc(C(N)=O)c(NCC(C)(C)C)cc1C(=O)N[C@H]1C[C@H]2CC[C@@H](C1)N2c1ccc(C(=O)C2CC2)cn1` [N-{8-[5-(cyclopropylcarbonyl)pyridin-2-yl]-8-azabicyclo[3.2.1]oct-3-endo-yl)-5-[(2,2-dimethylpropyl)amino]-2-methylbenzene-1,4-dicarboxamide], `CCNc1cc(C(N)=O)c(N[C@H](C)CC)cc1C(=O)NC1CC2CCC(C1)N2c1ccc(C(=O)C2CC2)cn1` (stereo partly drawn) [N-{8-[5-(cyclopropylcarbonyl)pyridin-2-yl]-8-azabicyclo[3.2.1]oct-3-endo-yl}-2-(ethylamino)-5-{[(1R)-1-methylpropyl]amino}benzene-1,4-dicarboxamide] is higher in IC50: < 500 nM for the first, 2000 to 10000 nM for the second. The first is the more potent here.

`CC[C@@H](C)Nc1cc(C(=O)NC2CC3CCC(C2)N3c2ccc(C(=O)C3CC3)cn2)c(OC)cc1C(N)=O` (stereo partly drawn) [N-{8-[5-(cyclopropylcarbonyl)pyridin-2-yl]-8-azabicyclo[3.2.1]oct-3-endo-yl}-2-(methyloxy)-5-{[(1R)-1-methylpropyl]amino}benzene-1,4-dicarboxamide] and `CCc1cc(C(N)=O)c(N[C@H](C)CC)cc1C(=O)NC1CC2CCC(C1)N2c1ccc(C(=O)C2CC2)cn1` (stereo partly drawn) [N-{8-[5-(cyclopropylcarbonyl)pyridin-2-yl]-8-azabicyclo[3.2.1]oct-3-endo-yl}-2-ethyl-5-{[(1R)-1-methylpropyl]amino}benzene-1,4-dicarboxamide] cannot be ordered by IC50: < 500 nM for the first, < 500 nM for the second.
